Consider 17 compounds from US10143681B2, “Factor XIa inhibitors” (MERCK SHARP & DOHME CORP., priority 2016, dated 2018).

The target in experiment [1] is human Factor XIa (Homo sapiens (Human), UniProt P03951). As to the kind of experiment: Factor XIa Assay. Type of experiment: biochemical. Conditions: for pIC50: human Factor XIa 0.04 nM, 30 min pre-incubation at 25° C., substrate GPR-AFC, read-out: FXIa IC50; for inhibition at 1 µM: @ 1000 nM compound, read-out: FXIa % Inh. @ 1000 nM. Here is the method: (§1) The effectiveness of a compound of the present invention as an inhibitor of Coagulation Factor XIa can be determined using a relevant purified serine protease, and an appropriate synthetic substrate. The rate of hydrolysis of the chromogenic or fluorogenic substrate by the relevant serine protease was measured both in the absence and presence of compounds of the present invention. Assays were conducted at room temperature or at 37° C. […] A decrease in the rate of fluorescence change in the presence of inhibitor is indicative of enzyme inhibition. Such methods are known to one skilled in the art. The results of this assay are expressed as the half-maximal inhibitory concentrations (IC50), or the inhibitory constant, Ki.
Compounds were pre-incubated for 30 minutes at 25° C. with human (0.04 nM) Factor XIa in 50 mM HEPES buffer with 150 mM sodium chloride, 5 mM calcium chloride, 0.1% PEG 8000, pH 7.4. Factor XIa enzymatic activity was determined by addition of the substrate glycine-proline-arginine-7-amido-4-trifluoromethylcoumarin (GPR-AFC) and measurement of the fluorescence at 400/505 nm after a 60 minute incubation at 25° C. The % inhibition for each data point was calculated from the data and analyzed using the log (inhibitor) vs. response four parameters equation to determine the half-maximal inhibitory concentrations (IC50). The IC50 were converted to equilibrium inhibitory constants (Ki) using the Cheng-Prusoff equation.

For experiment [2], the system named is Human plasma (intrinsic coagulation cascade). As to the kind of experiment: Activated Partial Thromboplastin Time (aPTT) Assay. The settings on record: concentration that causes a 50% (1.5×) increase of clot time over vehicle. Here is the method:
Activated partial thromboplastin time (aPTT) is a clotting test that measures the intrinsic coagulation cascade. The test is performed in sodium citrated plasma. Human plasma is made by collecting blood from healthy donors of both genders into Na citrate tubes (Sarstedt coagulation 9NC/10 ml). Blood is centrifuged at 1500×g and the plasma is collected. aPTT is checked on each individual donor and those within the normal range (28-40 seconds) are pooled, aliquoted, and stored at −80 C. Test samples are prepared by spiking inhibitors or vehicle into plasma. These spiked samples are then run on a coagulation analyzer (STA-R Evolution, Stago Diagnostica). In general, the analyzer performs the following steps: Factor XII is activated by addition of ellagic acid (Pacific Hemostasis), and then time to clot is measured after re-calcification of the sample. Inhibition of FXI will cause aPTT clot time to be prolonged. The data is expressed as percent increase over vehicle control clot time and the concentration that causes a 50% (1.5×) percent increase of clot time are reported.

In experiment [3] the target is Human plasma kallikrein (Homo sapiens (Human), UniProt P03952). As to the kind of experiment: Kallikrein Assay. In kind it is biochemical. The settings on record: purified Human plasma kallikrein 0.5 nM, substrate Acetyl-K-P-R-AFC; read-out: P. KLK IC50. Here is the method: as §1, with “Kallikrein” for “Coagulation Factor XIa”
Kallikrein determinations were made in 50 mM HEPES buffer at pH 7.4 containing 150 mM NaCl, 5 mM CaCl2, and 0.1% PEG 8000 (polyethylene glycol; Fisher Scientific). Determinations were made using purified Human plasma kallikrein at a final concentration of 0.5 nM (Enzyme Research Laboratories) and the synthetic substrate, Acetyl-K-P-R-AFC (Sigma # C6608) at a concentration of […].
Times required to achieve equilibration between enzyme and inhibitor were determined in control experiments. The reactions were performed under linear progress curve conditions and fluorescence increase measured at 405 Ex/510 Em nm. […] IC50 was determined by inflection point from a four parameter logistic curve fit. Ki was calculated using the Cheng Prusoff equation, Ki=IC50/(1+([S]/Km)).

pIC50: −log10 of the molar value. Bounds are passed on as bounds.

Human plasma kallikrein, sequence (P03952 391-638): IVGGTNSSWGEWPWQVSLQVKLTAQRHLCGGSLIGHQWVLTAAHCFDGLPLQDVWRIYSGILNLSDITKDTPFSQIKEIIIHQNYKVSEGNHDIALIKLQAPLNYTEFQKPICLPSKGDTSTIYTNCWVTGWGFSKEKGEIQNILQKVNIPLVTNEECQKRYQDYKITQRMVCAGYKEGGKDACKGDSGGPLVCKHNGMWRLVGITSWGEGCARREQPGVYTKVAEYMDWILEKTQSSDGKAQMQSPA
Human plasma kallikrein, sequence (P03952 20-390 partner): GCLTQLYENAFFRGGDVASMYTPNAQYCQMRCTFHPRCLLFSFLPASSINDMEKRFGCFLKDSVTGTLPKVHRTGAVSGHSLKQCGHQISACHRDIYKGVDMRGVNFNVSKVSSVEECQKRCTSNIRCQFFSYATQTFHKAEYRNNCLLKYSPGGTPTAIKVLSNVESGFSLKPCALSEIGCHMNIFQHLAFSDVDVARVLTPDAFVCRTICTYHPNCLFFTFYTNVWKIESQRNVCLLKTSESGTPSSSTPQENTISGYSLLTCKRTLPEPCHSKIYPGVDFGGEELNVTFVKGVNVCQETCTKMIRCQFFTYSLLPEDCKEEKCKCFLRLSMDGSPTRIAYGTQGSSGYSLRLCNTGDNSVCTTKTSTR
human Factor XIa, sequence (P03951 388-625): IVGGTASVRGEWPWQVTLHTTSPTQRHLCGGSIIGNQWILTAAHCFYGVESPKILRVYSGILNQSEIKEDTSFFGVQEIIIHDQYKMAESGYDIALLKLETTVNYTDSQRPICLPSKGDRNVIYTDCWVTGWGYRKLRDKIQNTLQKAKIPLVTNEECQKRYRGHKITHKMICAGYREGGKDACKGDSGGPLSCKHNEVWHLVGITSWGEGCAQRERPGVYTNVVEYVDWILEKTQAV
human Factor XIa, sequence (P03951 19-387 partner): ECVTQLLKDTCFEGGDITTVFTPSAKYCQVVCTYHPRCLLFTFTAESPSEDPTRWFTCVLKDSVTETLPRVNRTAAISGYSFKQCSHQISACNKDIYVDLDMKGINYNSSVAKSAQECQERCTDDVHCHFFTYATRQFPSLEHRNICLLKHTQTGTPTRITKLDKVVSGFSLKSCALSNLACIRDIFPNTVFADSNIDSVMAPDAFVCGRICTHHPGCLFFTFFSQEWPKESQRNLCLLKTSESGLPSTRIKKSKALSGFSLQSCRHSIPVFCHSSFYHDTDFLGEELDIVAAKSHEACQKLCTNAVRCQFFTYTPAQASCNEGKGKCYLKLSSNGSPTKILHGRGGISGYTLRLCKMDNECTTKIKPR

With `O=C(O)c1ccc(NC(=O)[C@@H](CC2CCC2)c2ccc(-c3c(C(F)F)ccc(Cl)c3F)c[n+]2[O-])cc1` (mixture of isomers) [Example 3, (S)- and (R)-2-(1-((4-Carboxyphenyl)amino)-3-cyclobutyl-1-oxopropan-2-yl)-5-(3-chloro-6-(difluoromethyl)-2-fluorophenyl)pyridine 1-oxide], in experiment [1], the negative logarithm of the IC50 (pIC50) – broadly, −log10 of the IC50, conventionally taken in molar units – is 7.41. Also, in experiment [2], the “aPTT (1.5x)” value is >100 µM. As for `O=C(O)c1ccc(NC(=O)C(CC2CC2)c2ccc(-c3cc(Cl)ccc3OC(F)F)c[n+]2[O-])cc1` (single isomer, unassigned) [Example 6, (S)- or (R)-4-[(2-{5-[5-chloro-2-(difluoromethoxy)phenyl]-1-oxidopyridin-2-yl}-3-cyclopropylpropanoyl)amino] benzoic acid], in experiment [1], the inhibition at 1 µM is 30% and the negative logarithm of the IC50 (pIC50) is < 6.00. Moreover, the “aPTT (1.5x)” value in experiment [2] is >100 µM. In the case of `CCOc1ccc(Cl)c(F)c1-c1ccc(C(CC2CC2)C(=O)Nc2ccc(C(=O)O)cc2)[n+]([O-])c1` (single isomer, unassigned) [Example 8, (S)- or (R)-4-({2-[5-(3-chloro-6-ethoxy-2-fluorophenyl)-1-oxidopyridin-2-yl]-3-cyclopropylpropanoyl}amino) benzoic acid], the pIC50 in experiment [1] was 6.01. Besides, the “aPTT (1.5x)” value in experiment [2] was >100 µM. In the case of `CC(C)Oc1ccc(Cl)c(F)c1-c1ccc(C(CC2CC2)C(=O)Nc2ccc(C(=O)O)cc2)[n+]([O-])c1` (single isomer, unassigned) [Example 16, (S)- or (R)-4-[(2-{5-[3-chloro-2-fluoro-6-(1-methylethoxy)phenyl]-1-oxidopyridin-2-yl}-3-cyclopropylpropanoyl)amino] benzoic acid], in experiment [1], the inhibition at 1 µM is 33% and the negative logarithm of the IC50 (pIC50) was < 6.00. The “aPTT (1.5x)” value in experiment [2] is >100 µM.

Regarding `CC(C)Oc1ccc(Cl)c(F)c1-c1ccc(C(CC2CC2)C(=O)Nc2ccc(C(=O)O)cc2)[n+]([O-])c1` (single isomer, unassigned) [Example 17, (R)- or (S)-4-[(2-{5-[3-chloro-2-fluoro-6-(1-methylethoxy)phenyl]-1-oxidopyridin-2-yl}-3-cyclopropylpropanoyl)amino] benzoic acid], the negative logarithm of the IC50 (pIC50) in experiment [1] was 7.62. In experiment [2], the “aPTT (1.5x)” value is >100 µM. The matching figures for `O=C(O)c1ccc(NC(=O)C(CC2CCCC2)c2ccc(-c3c(OC(F)F)ccc(Cl)c3F)c[n+]2[O-])cc1` (single isomer, unassigned) [Example 18, (S)- or (R)-4-[(2-{5-[3-chloro-6-(difluoromethoxy)-2-fluorophenyl]-1-oxidopyridin-2-yl}-3-cyclopentylpropanoyl)amino] benzoic acid]: 7.00 and >100 µM. For `O=C(O)c1ccc(NC(=O)C(CC2CC2)c2ccc(-c3cc(Cl)ccc3C(F)F)c[n+]2[O-])cc1` (single isomer, unassigned) [Example 28, (S)- or (R)-2-(1-((4-carboxyphenyl)amino)-3-cyclopropyl-1-oxopropan-2-yl)-5-(5-chloro-2-(difluoromethyl)phenyl)pyridine 1-oxide], in that order: 6.53 and >100 µM. On to `O=C1CCC(CC(C(=O)Nc2ccc(C(=O)O)cc2)c2ccc(-c3c(OC(F)F)ccc(Cl)c3F)c[n+]2[O-])CC1` (single isomer, unassigned) [Example 33], for which the pIC50 in experiment [3] is 7.09.

In the case of `C[C@]1(O)CC[C@@H](CC(C(=O)Nc2ccc(C(=O)O)cc2)c2ccc(-c3c(OC(F)F)ccc(Cl)c3F)c[n+]2[O-])CC1` (single isomer, unassigned) [Example 40, 2-(1-((4-carboxyphenyl)amino)-3-((1s,4s)-4-hydroxy-4-methylcyclohexyl)-1-oxopropan-2-yl)-5-(3-chloro-6-(difluoromethoxy)-2-fluorophenyl)pyridine 1-oxide], the pIC50 in experiment [1] was 8.49; in experiment [3], 7.46.

For `C[C@@H]1C[C@H]1C[C@@H](C(=O)Nc1ccc(C(=O)O)cc1)c1ccc(-c2c(OC(F)F)ccc(Cl)c2F)c[n+]1[O-]` (single isomer, unassigned) [Example 56], the pIC50 in experiment [1] was 9.42. Besides, the “aPTT (1.5x)” value in experiment [2] is 1.34 µM.

As for `CC1CC(CC(C(=O)Nc2ccc(C(=O)O)cc2)c2ccc(-c3c(C(F)(F)F)ccc(Cl)c3F)c[n+]2[O-])C1` (single isomer, unassigned) [Example 75, 2-(1-((4-carboxyphenyl)amino)-3-(3-methylcyclobutyl)-1-oxopropan-2-yl)-5-(3-chloro-2-fluoro-6-(trifluoromethyl)phenyl) pyridine 1-oxide], the pIC50 in experiment [1] is 8.48; in experiment [3], 7.11. Take `O=C(O)c1ccc(NC(=O)C(CC2CC2(F)F)c2ccc(-c3c(C(F)F)ccc(Cl)c3F)c[n+]2[O-])cc1` (single isomer, unassigned) [Example 77, 2-(1-((4-carboxyphenyl)amino)-3-(2,2-difluorocyclopropyl)-1-oxopropan-2-yl)-5-(3-chloro-6-(difluoromethyl)-2-fluorophenyl)pyridine 1-oxide]: the pIC50 in experiment [3] is 7.42. Turning to `O=C(O)c1ccc(NC(=O)C(CC2CC2C(F)F)c2ccc(-c3c(C(F)F)ccc(Cl)c3F)c[n+]2[O-])cc1` (single isomer, unassigned) [Example 89, 2-(1-((4-carboxyphenyl)amino)-3-(2-(difluoromethyl)cyclopropyl)-1-oxopropan-2-yl)-5-(3-chloro-6-(difluoromethyl)-2-fluorophenyl)pyridine-1-oxide], the results for the pIC50 in experiment [1] and in experiment [3] were 9.22 and 8.15, respectively. Consider `O=C(O)c1ccc(NC(=O)C(CC2CC2F)c2ccc(-c3c(C(F)F)ccc(Cl)c3F)c[n+]2[O-])cc1` (single isomer, unassigned) [Example 91, 2-(1-((4-carboxyphenyl)amino)-3-(2-fluorocyclopropyl)-1-oxopropan-2-yl)-5-(3-chloro-6-(difluoromethyl)-2-fluorophenyl)pyridine 1-oxide], for which the negative logarithm of the IC50 (pIC50) in experiment [1] was 7.55. Besides, in experiment [2], the “aPTT (1.5x)” value was 5.93 µM. On to `O=C(O)c1ccc(NC(=O)C(CC2CC2F)c2ccc(-c3c(C(F)F)ccc(Cl)c3F)c[n+]2[O-])cc1` (single isomer, unassigned) [Example 92, 2-(1-((4-carboxyphenyl)amino)-3-(2-fluorocyclopropyl)-1-oxopropan-2-yl)-5-(3-chloro-6-(difluoromethyl)-2-fluorophenyl)pyridine 1-oxide], for which, in experiment [2], the “aPTT (1.5x)” value was determined as 100 µM. As for `CC1CCC1CC(C(=O)Nc1ccc(C(=O)O)cc1)c1ccc(-c2c(OC(F)F)ccc(Cl)c2F)c[n+]1[O-]` (single isomer, unassigned) [Example 105, 2-(1-((4-carboxyphenyl)amino)-3-(2-methylcyclobutyl)-1-oxopropan-2-yl)-5-(3-chloro-6-(difluoromethoxy)-2-fluorophenyl)pyridine 1-oxide], the negative logarithm of the IC50 (pIC50) in experiment [1] was 9.21. The “aPTT (1.5x)” value in experiment [2] amounted to 1.13 µM. Turning to `COc1cc(C(CC2CC2)C(=O)Nc2ccc(C(=O)O)cc2)[n+]([O-])cc1-c1c(C(F)F)ccc(Cl)c1F` [Example 69, (S)- and (R)-2-(1-((4-carboxyphenyl)amino)-3-cyclopropyl-1-oxopropan-2-yl)-5-(3-chloro-6-(difluoromethyl)-2-fluorophenyl)-4-methoxypyridine 1-oxide], in experiment [2], the “aPTT (1.5x)” value is 1.92 µM.
